Results published in ChEMBL document CHEMBL5344406, “1,2,3-Triazole-containing hybrids with potential antibacterial activity against ESKAPE pathogens” (2022).
≈ marks a conversion by molar mass, not a printed value.

Tests used:
Format in all cases: functional
Staphylococcus aureus [1] = experiment: Antibacterial activity against Staphylococcus aureus assessed as bacterial growth inhibition by CLSI based broth microdilution method
Escherichia coli [2] = experiment: Antibacterial activity against Escherichia coli assessed as bacterial growth inhibition by CLSI based broth microdilution method
Pseudomonas aeruginosa [3] = experiment: Antibacterial activity against Pseudomonas aeruginosa assessed as bacterial growth inhibition by CLSI based broth microdilution method
Staphylococcus aureus [4] = experiment: Antibacterial activity against erythromycin-susceptible Staphylococcus aureus ATCC 25923 assessed as bacterial growth inhibition by standard dilution assay
Staphylococcus aureus [5] = experiment: Antibacterial activity against methicillin-resistant Staphylococcus aureus ATCC 43300 assessed as bacterial growth inhibition by standard dilution assay
Staphylococcus aureus [6] = experiment: Antibacterial activity against erythromycin-resistant Staphylococcus aureus clinical isolate assessed as bacterial growth inhibition by standard dilution assay
Staphylococcus aureus [7] = experiment: Antibacterial activity against penicillin-resistant Staphylococcus aureus ATCC 31007 assessed as bacterial growth inhibition by standard dilution assay
Klebsiella pneumoniae [8] = experiment: Antibacterial activity against erythromycin-resistant Klebsiella pneumoniae ATCC 700603 assessed as bacterial growth inhibition by standard dilution assay
Staphylococcus aureus [9] = experiment: Potency index, ratio of Azithromycin MIC to test compound MIC for antibacterial activity against erythromycin-susceptible Staphylococcus aureus ATCC 25923 assessed as bacterial growth inhibition by standard dilution assay
Staphylococcus aureus [10] = experiment: Potency index, ratio of Clarithromycin MIC to test compound MIC for antibacterial activity against erythromycin-susceptible Staphylococcus aureus ATCC 25923 assessed as bacterial growth inhibition by standard dilution assay
Staphylococcus aureus [11] = experiment: Antibacterial activity against Staphylococcus aureus assessed as bacterial growth inhibition by broth microdilution method
Escherichia coli [12] = experiment: Antibacterial activity against Escherichia coli assessed as bacterial growth inhibition by broth microdilution method
Klebsiella pneumoniae [13] = experiment: Antibacterial activity against Klebsiella pneumoniae assessed as bacterial growth inhibition by broth microdilution method
Escherichia coli [14] = experiment: Antibacterial activity against multidrug-resistant Escherichia coli assessed as bacterial growth inhibition incubated for 24 hrs by […] method
Staphylococcus aureus [15] = experiment: Antibacterial activity against Staphylococcus aureus clinical isolate assessed as bacterial growth inhibition incubated for 24 hrs by disk diffusion method
Escherichia coli [16] = experiment: Antibacterial activity against Escherichia coli clinical isolate assessed as bacterial growth inhibition incubated for 24 hrs by disk diffusion method
Escherichia coli [17] = experiment: Antibacterial activity against Escherichia coli assessed as bacterial growth inhibition
Staphylococcus aureus [18] = experiment: Antibacterial activity against methicillin-sensitive Staphylococcus aureus assessed as bacterial growth inhibition
[19] = test system: Staphylococcus epidermidis; experiment: Antibacterial activity against methicillin-sensitive Staphylococcus epidermidis assessed as bacterial growth inhibition
Enterococcus faecalis = experiment: Antibacterial activity against Enterococcus faecalis assessed as bacterial growth inhibition
Enterococcus faecium = experiment: Antibacterial activity against Enterococcus faecium assessed as bacterial growth inhibition
Pseudomonas aeruginosa [20] = experiment: Antibacterial activity against Pseudomonas aeruginosa assessed as bacterial growth inhibition
Enterobacter cloacae = experiment: Antibacterial activity against Enterobacter cloacae assessed as bacterial growth inhibition
Klebsiella aerogenes = experiment: Antibacterial activity against Enterobacter aerogenes assessed as bacterial growth inhibition
Providencia rettgeri = experiment: Antibacterial activity against Providencia rettgeri assessed as bacterial growth inhibition
Proteus vulgaris = experiment: Antibacterial activity against Proteus vulgaris assessed as bacterial growth inhibition
Klebsiella pneumoniae [21] = experiment: Antibacterial activity against Klebsiella pneumoniae assessed as bacterial growth inhibition
Escherichia coli [22] = experiment: Antibacterial activity against Escherichia coli producing extended spectrum beta-lactamases assessed as bacterial growth inhibition
Klebsiella pneumoniae [23] = experiment: Antibacterial activity against Klebsiella pneumoniae producing extended spectrum beta-lactamases assessed as bacterial growth inhibition
Bacillus subtilis [24] = experiment: Antibacterial activity against Bacillus subtilis assessed as bacterial growth inhibition by broth microdilution method
Staphylococcus aureus [25] = experiment: Antibacterial activity against Staphylococcus aureus ATCC 43300 assessed as bacterial growth inhibition measured for 5 to 20 mins by broth dilution method; conditions: time 5-20 min
Pseudomonas aeruginosa [26] = experiment: Antibacterial activity against Pseudomonas aeruginosa ATCC 10145 assessed as bacterial growth inhibition measured for 5 to 20 mins by broth dilution method; conditions: time 5-20 min
Pseudomonas aeruginosa [27] = experiment: Antibacterial activity against Pseudomonas aeruginosa assessed as bacterial growth inhibition by broth microdilution method
Staphylococcus aureus [28] = experiment: Antibacterial activity against Staphylococcus aureus ATCC 25923 assessed as bacterial growth inhibition by broth microdilution method
Escherichia coli [29] = experiment: Antibacterial activity against Escherichia coli ATCC 25922 assessed as bacterial growth inhibition by broth microdilution method
Staphylococcus aureus [30] = experiment: Antibacterial activity against Staphylococcus aureus assessed as bacterial growth inhibition by broth dilution method
Bacillus subtilis [31] = experiment: Antibacterial activity against Bacillus subtilis assessed as bacterial growth inhibition by serial dilution method
[32] = test system: Staphylococcus epidermidis; experiment: Antibacterial activity against Staphylococcus epidermidis assessed as bacterial growth inhibition by serial dilution method
Staphylococcus aureus [33] = experiment: Antibacterial activity against multidrug-resistant Staphylococcus aureus clinical isolate assessed as bacterial growth inhibition by broth dilution method
Bacillus subtilis [34] = experiment: Antibacterial activity against Bacillus subtilis ATCC 6633 assessed as bacterial growth inhibition incubated for 18 to 24 hrs by turbidimetry; conditions: time 18-24 hrs
Escherichia coli [35] = experiment: Antibacterial activity against Escherichia coli assessed as bacterial growth inhibition by serial dilution method
Bacillus subtilis [36] = experiment: Antibacterial activity against Bacillus subtilis MTCC 441 assessed as bacterial growth inhibition incubated for 24 hrs by serial dilution method
Klebsiella pneumoniae [37] = experiment: Antibacterial activity against Klebsiella pneumoniae NCDC 138 assessed as bacterial growth inhibition incubated for 24 hrs by serial dilution method
Bacillus subtilis [38] = experiment: Antibacterial activity against Bacillus subtilis assessed as bacterial growth inhibition incubated for 24 hrs by serial dilution method
Salmonella enterica = experiment: Antibacterial activity against Salmonella enterica assessed as bacterial growth inhibition incubated for 24 hrs by serial dilution method
Staphylococcus aureus [39] = experiment: Antibacterial activity against Staphylococcus aureus MTCC 737 assessed as bacterial growth inhibition by serial dilution method
Escherichia coli [40] = experiment: Antibacterial activity against Escherichia coli MTCC 1687 assessed as bacterial growth inhibition by serial dilution method
Staphylococcus aureus [41] = experiment: Antibacterial activity against Staphylococcus aureus assessed as bacterial growth inhibition by agar well diffusion method
Bacillus subtilis [42] = experiment: Antibacterial activity against Bacillus subtilis assessed as bacterial growth inhibition by agar well diffusion method
Escherichia coli [43] = experiment: Antibacterial activity against Escherichia coli MTCC 443 assessed as bacterial growth inhibition by broth microdilution method
Pseudomonas aeruginosa [44] = experiment: Antibacterial activity against Pseudomonas aeruginosa MTCC 1688 assessed as bacterial growth inhibition by broth microdilution method
Streptococcus pyogenes = experiment: Antibacterial activity against Streptococcus pyogenes MTCC 442 assessed as bacterial growth inhibition by broth microdilution method
Staphylococcus aureus [45] = experiment: Antibacterial activity against Staphylococcus aureus MTCC 96 assessed as bacterial growth inhibition by broth microdilution method

With `O=C(N/N=C/c1cn(-c2ccccc2)nc1-c1ccc([N+](=O)[O-])cc1)c1cccc(-n2cc(-c3ccccc3)nn2)c1` the MIC (Staphylococcus aureus [1]) was 4 µg/mL (≈ 7.21 µM), the MIC (Escherichia coli [2]) was 4 µg/mL (≈ 7.21 µM) and the MIC (Pseudomonas aeruginosa [3]) was 4 µg/mL (≈ 7.21 µM).
`CCCCCc1ccc(-c2cn(CC(=O)NNC(=O)O[C@H]3C[C@H](C)[C@@H](O[C@@H]4[C@H](C)[C@@H](O[C@H]5O[C@@H](C)C[C@@H](N(C)C)[C@@H]5O)[C@@](C)(O)C[C@@H](C)CN(C)[C@H](C)[C@H]5OC(=O)O[C@]5(C)[C@H](CC)OC(=O)[C@@H]4C)C[C@@]3(C)OC)nn2)cc1` showed an MIC (Staphylococcus aureus [4]) of 2 µg/mL (≈ 1.84 µM), an MIC (Staphylococcus aureus [5]) of 2 µg/mL (≈ 1.84 µM) and an MIC (Staphylococcus aureus [6]) of no less than 128 µg/mL. The MIC (Staphylococcus aureus [7]) was 2 µg/mL (≈ 1.84 µM), the MIC (Klebsiella pneumoniae [8]) was no less than 128 µg/mL and the Ratio (Staphylococcus aureus [9]) was greater than 32. For the same compound, the Ratio (Staphylococcus aureus [10]) was greater than 32.
`CC1(C)S[C@@H]2[C@H](NC(=O)[C@H](N)c3ccc(O)cc3)C(=O)N2[C@H]1C(=O)O` [AMOXICILLIN] gave an MIC (Staphylococcus aureus [11]) of 25 µg/mL (≈ 68.4 µM), an MIC (Escherichia coli [12]) of 25 µg/mL (≈ 68.4 µM) and an MIC (Klebsiella pneumoniae [13]) of 25 µg/mL (≈ 68.4 µM).
For `c1ccc(-n2cc(COc3ccc(-c4nc5ccccc5s4)cc3)nn2)cc1`, the MIC (Escherichia coli [14]) was 7.99 µg/mL (≈ 20.8 µM).
For `Cc1ccccc1-n1cc(Cn2c3ccccc3c(=O)c3ccccc32)nn1`, the MIC (Staphylococcus aureus [15]) was 10.1 µg/mL (≈ 27.6 µM) and the MIC (Escherichia coli [16]) was 10.1 µg/mL (≈ 27.6 µM).
`CCO/N=C1\C(=O)N(Cc2cn(CC(=O)N3CCC[C@@H]4CN(c5c(F)cc6c(=O)c(C(=O)O)cn(C7CC7)c6c5OC)C[C@@H]43)nn2)c2ccccc21` showed an MIC (Escherichia coli [17]) of no more than 0.03 µg/mL, an MIC (Staphylococcus aureus [18]) of no more than 0.03 µg/mL and an MIC [19] of no more than 0.03 µg/mL. The MIC (Enterococcus faecalis) was no more than 0.03 µg/mL, the MIC (Enterococcus faecium) was no more than 0.03 µg/mL and the MIC (Pseudomonas aeruginosa [20]) was no more than 0.03 µg/mL. The MIC (Enterobacter cloacae) was no more than 0.03 µg/mL, the MIC (Klebsiella aerogenes) was no more than 0.03 µg/mL and the MIC (Providencia rettgeri) was no more than 0.03 µg/mL. For the same compound, the MIC (Proteus vulgaris) was no more than 0.03 µg/mL, the MIC (Klebsiella pneumoniae [21]) was no more than 0.03 µg/mL and the MIC (Escherichia coli [22]) was no more than 0.03 µg/mL. The MIC (Klebsiella pneumoniae [23]) was no more than 0.03 µg/mL.
`CC1(C)S[C@@H]2[C@H](NC(=O)[C@H](N)c3ccccc3)C(=O)N2[C@H]1C(=O)O` [AMPICILLIN] gave an MIC (Staphylococcus aureus [11]) of 4 µg/mL (≈ 11.4 µM), an MIC (Bacillus subtilis [24]) of 4 µg/mL (≈ 11.4 µM) and an MIC (Escherichia coli [12]) of 4 µg/mL (≈ 11.4 µM). For the same compound, the MIC (Staphylococcus aureus [25]) was 2.5 µg/mL (≈ 7.15 µM), the MIC (Pseudomonas aeruginosa [26]) was 5 µg/mL (≈ 14.3 µM) and the MIC (Pseudomonas aeruginosa [27]) was 1 µg/mL (≈ 2.86 µM).
`Clc1ccc(Cn2cc(Cn3nnc(C4=Cc5cc(Cl)ccc5OC4)n3)nn2)c(Cl)c1` gave an MIC (Staphylococcus aureus [28]) of 6.5 µg/mL (≈ 13.7 µM) and an MIC (Escherichia coli [29]) of 6.5 µg/mL (≈ 13.7 µM).
`Cc1ccc2c(c1)c(=O)c1ccccc1n2Cc1cn(-c2ccccc2C)nn1` gave an MIC (Staphylococcus aureus [15]) of 10.1 µg/mL (≈ 26.5 µM) and an MIC (Escherichia coli [16]) of 10.1 µg/mL (≈ 26.5 µM).
`Cc1ccc2c(c1)C=C(c1nnn(Cc3cn(Cc4ccccc4)nn3)n1)CO2` showed an MIC (Staphylococcus aureus [28]) of 6.5 µg/mL (≈ 16.9 µM) and an MIC (Escherichia coli [29]) of 6.5 µg/mL (≈ 16.9 µM).
Work on `CCCCc1ccc(-c2cn(CC(=O)NNC(=O)O[C@H]3C[C@H](C)[C@@H](O[C@@H]4[C@H](C)[C@@H](O[C@H]5O[C@@H](C)C[C@@H](N(C)C)[C@@H]5O)[C@@](C)(O)C[C@@H](C)CN(C)[C@H](C)[C@H]5OC(=O)O[C@]5(C)[C@H](CC)OC(=O)[C@@H]4C)C[C@@]3(C)OC)nn2)cc1` yielded an MIC (Staphylococcus aureus [4]) of 2 µg/mL (≈ 1.87 µM), an MIC (Staphylococcus aureus [5]) of 2 µg/mL (≈ 1.87 µM) and an MIC (Staphylococcus aureus [6]) of no less than 128 µg/mL. It also gave an MIC (Staphylococcus aureus [7]) of 2 µg/mL (≈ 1.87 µM), an MIC (Klebsiella pneumoniae [8]) of no less than 128 µg/mL and a Ratio (Staphylococcus aureus [9]) greater than 32. The Ratio (Staphylococcus aureus [10]) was greater than 32.
Work on `CCn1cc(C(=O)O)c(=O)c2cc(F)c(N3CCNCC3)cc21` [NORFLOXACIN] yielded an MIC (Staphylococcus aureus [30]) of 7.5 µg/mL (≈ 23.5 µM), an MIC (Bacillus subtilis [31]) of 3.12 µg/mL (≈ 9.77 µM) and an MIC [32] of 3.12 µg/mL (≈ 9.77 µM). It also gave an MIC (Staphylococcus aureus [33]) of 7.5 µg/mL (≈ 23.5 µM).
In the case of `O=C(O)c1cn(C2CC2)c2cc(N3CCNCC3)c(F)cc2c1=O` [CIPROFLOXACIN], the MIC (Bacillus subtilis [34]) is reported as 0.125 µg/mL (≈ 0.377 µM), the MIC (Pseudomonas aeruginosa [20]) is reported as 1.56 µg/mL (≈ 4.71 µM) and the MIC (Escherichia coli [35]) is reported as 25 µg/mL (≈ 75.4 µM). It also gave an MIC (Bacillus subtilis [36]) of 6.25 µg/mL (≈ 18.9 µM), an MIC (Klebsiella pneumoniae [37]) of 6.25 µg/mL (≈ 18.9 µM) and an MIC (Bacillus subtilis [38]) of 6.25 µg/mL (≈ 18.9 µM). For the same compound, the MIC (Salmonella enterica) was 6.25 µg/mL (≈ 18.9 µM), the MIC (Staphylococcus aureus [39]) was 12.5 µg/mL (≈ 37.7 µM) and the MIC (Escherichia coli [40]) was 12.5 µg/mL (≈ 37.7 µM). The MIC (Staphylococcus aureus [28]) was 12 µg/mL (≈ 36.2 µM), the MIC (Escherichia coli [29]) was 11 µg/mL (≈ 33.2 µM) and the MIC (Staphylococcus aureus [41]) was 0.5 µg/mL (≈ 1.51 µM). The MIC (Bacillus subtilis [42]) was 0.5 µg/mL (≈ 1.51 µM), the MIC (Bacillus subtilis [31]) was 25 µg/mL (≈ 75.4 µM) and the MIC [32] was 25 µg/mL (≈ 75.4 µM). It also gave an MIC (Escherichia coli [43]) of 24.9 µg/mL (≈ 75.1 µM), an MIC (Pseudomonas aeruginosa [44]) of 24.9 µg/mL (≈ 75.1 µM) and an MIC (Streptococcus pyogenes) of 24.9 µg/mL (≈ 75.1 µM). It also gave an MIC (Staphylococcus aureus [45]) of 24.9 µg/mL (≈ 75.1 µM).
